Test results reported in BindingDB's records for patent US20230295119 (Gossamer Bio Services, 2023).

What was measured:
[1] = target: Tyrosine-protein kinase JAK1 (Homo sapiens, UniProt P23458); assay: JAK1, JAK2, and JAK3 Activity
Experimental: (§1) Compounds described herein were tested for the ability to inhibit activity of human JAK1, JAK2 and JAK3, which was achieved using TR-FRET assays. Briefly, the Kinases JAK1 (2.5 nM), JAK2 (0.025 nM) and JAK3 (0.0125 nM) were incubated with a series of concentrations of the test compound in the presence of […] (biotin-ahx- […]-CONH2), 2 nM Eu-labeled anti-pTYRPY20 and 80 nM Streptavidin APC. After 30 min incubation at RT, ATP ([…] respectively for JAK1, JAK2 and JAK3) was added to start the reaction, and incubated for 80 min at RT. The reaction was stopped by adding detection buffer and incubated for a further 60 min at RT. The samples were analyzed using Envision to calculate % inhibition at each of the series of concentrations of the test compound. The IC50 value of the compounds for each of the kinases were calculated using XLFit software.

[2] = target: T1, Tyrosine-protein kinase JAK3 (Homo sapiens, UniProt P52333); assay: JAK1, JAK2, and JAK3 Activity
T1 sequence (P52333 whole entry): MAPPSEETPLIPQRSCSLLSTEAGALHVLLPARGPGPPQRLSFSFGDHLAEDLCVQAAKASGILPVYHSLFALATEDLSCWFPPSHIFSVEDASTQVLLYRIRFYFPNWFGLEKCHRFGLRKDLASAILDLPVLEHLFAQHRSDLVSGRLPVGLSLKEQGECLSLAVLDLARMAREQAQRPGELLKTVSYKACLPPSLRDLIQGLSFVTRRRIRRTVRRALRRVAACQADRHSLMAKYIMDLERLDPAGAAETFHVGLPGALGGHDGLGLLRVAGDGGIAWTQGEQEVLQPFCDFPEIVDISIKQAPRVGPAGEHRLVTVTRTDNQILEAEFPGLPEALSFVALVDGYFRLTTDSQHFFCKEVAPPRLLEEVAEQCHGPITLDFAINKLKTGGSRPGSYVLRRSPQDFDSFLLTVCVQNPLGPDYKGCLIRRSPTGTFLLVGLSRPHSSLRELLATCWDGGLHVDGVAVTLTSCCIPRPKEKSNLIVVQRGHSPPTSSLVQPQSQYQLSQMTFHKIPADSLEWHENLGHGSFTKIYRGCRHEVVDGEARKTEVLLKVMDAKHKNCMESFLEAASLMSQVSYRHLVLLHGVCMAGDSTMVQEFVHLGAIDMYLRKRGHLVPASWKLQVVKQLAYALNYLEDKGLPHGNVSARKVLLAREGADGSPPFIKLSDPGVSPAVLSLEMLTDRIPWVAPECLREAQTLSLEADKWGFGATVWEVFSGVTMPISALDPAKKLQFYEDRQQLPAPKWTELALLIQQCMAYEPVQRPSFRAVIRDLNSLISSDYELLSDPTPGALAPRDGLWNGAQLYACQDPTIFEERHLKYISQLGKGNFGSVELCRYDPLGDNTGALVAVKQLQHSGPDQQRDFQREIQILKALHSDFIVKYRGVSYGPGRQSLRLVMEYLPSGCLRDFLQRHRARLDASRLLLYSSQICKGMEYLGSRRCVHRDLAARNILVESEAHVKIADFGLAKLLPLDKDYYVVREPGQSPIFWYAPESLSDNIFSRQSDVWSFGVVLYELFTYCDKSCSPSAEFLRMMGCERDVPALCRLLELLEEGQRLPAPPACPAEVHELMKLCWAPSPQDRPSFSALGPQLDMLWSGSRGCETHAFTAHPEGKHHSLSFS
Experimental: as §1

[3] = JAK1, JAK2, and JAK3 Activity
[4] = target: Tyrosine-protein kinase JAK2 (Homo sapiens, UniProt O60674); assay: JAK1, JAK2, and JAK3 Activity
Experimental: as §1

Sequence of Tyrosine-protein kinase JAK1 (P23458 whole entry): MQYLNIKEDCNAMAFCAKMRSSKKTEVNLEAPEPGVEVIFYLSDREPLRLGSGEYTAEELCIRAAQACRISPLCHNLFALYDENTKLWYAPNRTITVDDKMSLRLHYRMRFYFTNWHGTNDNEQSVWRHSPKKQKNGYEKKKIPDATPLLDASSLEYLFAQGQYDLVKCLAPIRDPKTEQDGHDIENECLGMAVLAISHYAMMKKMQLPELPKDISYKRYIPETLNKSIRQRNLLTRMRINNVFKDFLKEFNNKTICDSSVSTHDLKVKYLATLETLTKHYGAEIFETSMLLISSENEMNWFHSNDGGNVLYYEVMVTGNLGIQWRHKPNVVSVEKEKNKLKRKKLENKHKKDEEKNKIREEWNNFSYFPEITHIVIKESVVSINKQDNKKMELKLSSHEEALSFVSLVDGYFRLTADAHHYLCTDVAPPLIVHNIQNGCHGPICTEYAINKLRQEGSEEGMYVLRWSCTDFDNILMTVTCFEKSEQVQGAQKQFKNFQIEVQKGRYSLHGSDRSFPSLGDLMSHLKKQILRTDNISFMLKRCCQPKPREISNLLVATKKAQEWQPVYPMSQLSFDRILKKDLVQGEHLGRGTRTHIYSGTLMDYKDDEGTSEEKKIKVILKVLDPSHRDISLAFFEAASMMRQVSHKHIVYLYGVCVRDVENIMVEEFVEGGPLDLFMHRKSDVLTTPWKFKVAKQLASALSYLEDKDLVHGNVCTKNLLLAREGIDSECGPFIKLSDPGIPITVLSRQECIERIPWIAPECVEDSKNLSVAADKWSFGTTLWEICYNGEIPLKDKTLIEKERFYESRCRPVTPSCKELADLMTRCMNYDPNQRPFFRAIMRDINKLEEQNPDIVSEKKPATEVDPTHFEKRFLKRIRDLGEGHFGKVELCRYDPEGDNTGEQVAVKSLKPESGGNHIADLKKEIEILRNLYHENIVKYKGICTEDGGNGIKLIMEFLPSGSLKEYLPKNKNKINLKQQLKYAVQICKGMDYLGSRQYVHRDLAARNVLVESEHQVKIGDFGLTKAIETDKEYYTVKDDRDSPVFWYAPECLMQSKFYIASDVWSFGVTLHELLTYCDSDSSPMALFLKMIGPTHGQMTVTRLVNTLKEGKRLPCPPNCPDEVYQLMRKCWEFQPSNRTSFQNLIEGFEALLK
Sequence of Tyrosine-protein kinase JAK2 (O60674 whole entry): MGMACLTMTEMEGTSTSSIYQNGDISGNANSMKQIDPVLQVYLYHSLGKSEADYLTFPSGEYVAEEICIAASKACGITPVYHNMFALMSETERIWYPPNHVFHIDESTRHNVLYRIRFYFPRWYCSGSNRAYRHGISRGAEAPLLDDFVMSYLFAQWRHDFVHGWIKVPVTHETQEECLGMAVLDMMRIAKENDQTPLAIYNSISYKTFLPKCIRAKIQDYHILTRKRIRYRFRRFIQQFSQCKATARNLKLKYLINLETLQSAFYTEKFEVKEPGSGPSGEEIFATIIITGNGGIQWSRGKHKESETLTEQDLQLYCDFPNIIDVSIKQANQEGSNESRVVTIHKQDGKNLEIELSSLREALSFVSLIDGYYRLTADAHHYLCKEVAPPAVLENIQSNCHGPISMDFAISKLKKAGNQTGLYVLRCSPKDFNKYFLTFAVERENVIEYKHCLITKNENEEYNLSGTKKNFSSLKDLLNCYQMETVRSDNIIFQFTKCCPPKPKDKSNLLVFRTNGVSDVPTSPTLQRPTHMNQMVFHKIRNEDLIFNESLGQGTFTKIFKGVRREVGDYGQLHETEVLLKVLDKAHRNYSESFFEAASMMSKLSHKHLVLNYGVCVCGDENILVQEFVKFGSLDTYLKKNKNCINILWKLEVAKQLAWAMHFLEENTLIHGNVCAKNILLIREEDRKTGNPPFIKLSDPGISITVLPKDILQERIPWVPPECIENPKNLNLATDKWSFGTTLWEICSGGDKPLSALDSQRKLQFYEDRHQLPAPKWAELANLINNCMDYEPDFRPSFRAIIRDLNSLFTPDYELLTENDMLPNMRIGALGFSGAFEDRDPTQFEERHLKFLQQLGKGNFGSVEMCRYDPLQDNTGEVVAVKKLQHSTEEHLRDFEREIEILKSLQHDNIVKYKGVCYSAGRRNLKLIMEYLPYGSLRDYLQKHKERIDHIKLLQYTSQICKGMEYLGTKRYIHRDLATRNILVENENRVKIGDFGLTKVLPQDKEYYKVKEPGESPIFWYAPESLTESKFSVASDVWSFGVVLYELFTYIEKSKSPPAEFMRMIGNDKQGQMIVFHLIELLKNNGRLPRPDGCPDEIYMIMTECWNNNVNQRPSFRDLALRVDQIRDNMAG

IC50 [1] [µM]	IC50 [2] [µM]	IC50 [3] [µM]	IC50 [4] [µM]	Structure (SMILES)
> 0.5	> 0.5	–	–	CCC(=O)c1cnc(Nc2ccc(CN3CCN(C)CC3)nn2)cc1Nc1cccc(-c2ncn(C)n2)c1OC [US20230295119, Compound 9PPP]
> 0.5	> 0.5	< 0.005	–	CCC(=O)c1cnc(Nc2cc(C(C)NC)ncn2)cc1Nc1cccc(-c2ncn(C)n2)c1OC (configuration not stated) [US20230295119, Compound 9PPPP]
> 0.5	> 0.5	–	> 0.5	CCC(=O)c1cnc(Nc2cnc(O[C@@H]3CCN(CC)C3)cn2)cc1Nc1cccc(-c2ncn(C)n2)c1OC [US20230295119, Compound 18DDD]
> 0.5	> 0.5	< 0.005	> 0.5	CCC(=O)c1cnc(Nc2cnc(OCCN3CCN(C)CC3)cn2)cc1Nc1cccc(-c2ncn(C)n2)c1OC [US20230295119, Compound 18FFF]
